Measurements as given in patent publication US20260373497A1, “MOLECULAR MACHINES STIMULATE INTERCELLULAR CALCIUM WAVES AND CAUSE MUSCLE CONTRACTION” (William Marsh Rice University, priority 2022, published 2026).
Several values for one entry are separate records, joined by “and”; a condition that tells them apart may be missing. Equal entries are not always repeated. Entries after “also recorded” stand apart in the source; their conditions may differ.

Assays:
C2C12 myoblasts = test: MM-induced calcium release in C2C12 cells (Fluo-4); format: cell-based, mouse; details: for Calcium release in C2C12 myoblasts: light for 500 ms, MM 1 8 μM
Source text: FIGS. 36A-36D—MMs cause intracellular calcium waves in C2C12 myoblasts, a) MM 1 (unidirectional, ~3 MHz) structure showing rotor and stator. b) Rotation cycle of a MM. c) Confocal microscope images of C2C12 myoblasts with MM and labeled with Fluo-4. Stimulated areas are indicated by the red arrows immediately before stimulation and 10 s after stimulation. Scale bar=30 μm. d) Average normalized fluorescence intensity trace of stimulated C2C12 cells myoblasts treated with either DMSO (n=6) or MM 1 (n=7) and stimulated with 400-nm laser light for 500 ms. Laser stimulation is shown by the cyan line.
Fluo-4 is an intracellular calcium dye that fluoresces green when binding to calcium and is commonly used to observe intracellular calcium spikes in many cell types.
C2C12 cells will undergo differentiation from myoblasts to multinucleated myotubes when allowed to grow to confluence. This process occurs over the course of several days and can be sped up by replacing normal growth media with low serum differentiation media (Jang et al., 2022). The responsiveness of C2C12 cells to MM stimulation changes was tracked as they went through the process of growth and differentiation (FIG. 39). When plated on the first day, the cells are in low confluency, and show clear morphology of myoblasts. The cells reach around 100% confluency on day 4 (FIG. 39A), at which point they begin to differentiate to form the myotubes. They show lowest uptake of Fluo-4 and nearly no responses. After about 9 days of growth in regular growth media, myotubes begin to form, which have a fibrous, striated and multinucleated appearance, and the uptake of Fluo-4 could be observed again.

[1] = UV-Vis absorbance of motors in DMSO; format: physicochemical
Source text: The UV-Vis spectrum of each motor was also acquired in DMSO (FIG. 37D) to ensure that the difference in absorbance at 400 nm was not the cause of larger or smaller responses.

Hydra vulgaris [2] = test: Whole-body contraction of Hydra (Protocol II); format: in vivo; details: for Contraction rate compared with light alone: Fisher's Exact Test, MM 2 P<0.00001, MM 1 P=0.0199, MM 3 P=0.5325, MM 4 P=0.0439; for Signaling / contraction in Hydra (summary): in vivo, MM + light; for Contraction peaks relative to sham stimulus: sham light, 0% laser duty cycle
Procedure: (§1) FIGS. 20A-20N—MM induce ICW and muscle contraction in vivo. (a) Image of a Hydra loaded into a microfluidic chamber with anatomical regions marked. Scale bar is 100 μm and applies to (a-c). (b) MM 1 (24 μM) loaded into Hydra for 24 h. (c) A Hydra expressing GCaMP7b in endodermal epitheliomuscular cells. The stimulation regions used for Protocols I and II are marked. Protocol 1 was used for body column stimulation (1 s pulse to a 10 μm diameter circular area) to trigger regional ICW. Protocol II was used for oral region stimulation (2 s pulse to the oral region, ~1000-2000 μm^2) to trigger whole-body contraction. (d) A regional ICW in a Hydra treated with MM 1 and stimulated with 405-nm light via Protocol I. The indicated times represent the time after stimulation at which the image was taken. Scale bar applies to both images and is 100 μm. (e-i) Responses observed from Hydra treated with (e) MM 1, (f) MM 2, (g) MM 3, (h) MM 4, or (i) DMSO control (“C”) and stimulated for 1 s using Protocol I. Bold, colored traces represent the average trace (n=25 across 5 Hydra). Gray traces represent individual experiments. (j) Bar graph showing ICW response rate and (k) box-and-whisker plot showing ICW delay time of Hydra stimulated using Protocol I across MM treatment conditions (n=25 experiments across at least 5 Hydra per condition). ICW responses were defined as ΔF/F0>1. (1) Representative contraction in a Hydra treated with MM 2 and stimulated via Protocol II. Scale bar applies to both images and is 100 μm. (m) Representative GCaMP7b fluorescence trace in a Hydra treated with MM 2 and stimulated using Protocol II. (n) Bar graph showing contractile response rates across treatment conditions for Hydra stimulated for 2 s using Protocol II (at least 50 experiments across ≥5 Hydra per condition). Error bars in bar graphs represent the standard error of the mean. See Example 6 for more info on the calculation of ICW and contractile response rates. For all plots, cyan lines indicate the time of stimulus with 405-nm light (9.0×10^2 W cm^−2), during which no data was collected. * P-value<0.05, ** P-value<0.01, *** P-value<0.001, **** P-value<0.0001.
(§2) Prior to stimulation experiments, Hydra were loaded with MM by incubating with solutions containing 24 μM of MM for 24 h (FIG. 20B). Distinct stimulation protocols were employed to cause either local ICW or whole-body contraction (FIG. 20C). First, treatment of MM-loaded Hydra with pulses of laser light administered to a small region of the body column (Protocol I) caused ICW emanating from the site of stimulation (FIGS. 20D and 21). Similar to ICW evoked in vitro, these ICW propagated throughout the Hydra body column according to the degree of electrical connectivity of the stimulated cells. Distinct propagation kinetics were observed when stimulating different regions of Hydra simultaneously. Second, MM activation was used to attempt to drive whole-body Hydra contractions by administering laser stimuli to the oral region (Protocol II).
(§3) Hydra Preparation, Stimulation, and Imaging: Hydra were raised in Hydra medium containing CaCl2·2H2O, MgCl2·6H2O, KNO3, NaHCO3, and MgSO4 in deionized water at 18 °C in a light-cycled (12 h light, 12 h dark) incubator. Hydra were fed with an excess of freshly brined Artemia Nauplii (Brine Shrimp Direct, Ogden, UT, #BSEP8Z) three times a week. All experiments were performed at room temperature after starving the animals for 2 days. The transgenic line expressing GCaMP6s under the Actin promoter in neurons was generated by embryonic microinjection by the Yuste lab at Columbia University (Addgene: plasmid #102558). The transgenic line expressing GCaMP7b under the Ef1α promoter in endodermal epitheliomuscular tissue was generated by embryonic microinjection in a collaboration by the Robinson lab (Rice University) and the Juliano Lab (University of California, Davis).
(§4) Hydra were incubated with chosen MM 24 h before imaging. […]

Hydra vulgaris [3] = test: Regional ICW in Hydra (Protocol I); format: in vivo; details: 24 μM MM; for Regional ICW upon body column stimulation: 24 h, 405 nm, 1 s
Procedure: as §1, §2, §3, §4

[4] = cited from earlier work

| Compound | Calcium release in C2C12 myoblasts (C2C12 myoblasts) | Absorbance at 400 nm [1] | Contraction rate compared with light alone (Hydra vulgaris [2]) | Contraction peaks relative to light stimulus (Hydra vulgaris [2]; Protocol II, with light) | Signaling / contraction in Hydra (summary) (Hydra vulgaris [2]) | Contraction peaks relative to sham stimulus (Hydra vulgaris [2]) | Success Rate (contractile response rate) (Hydra vulgaris [2]; with light, Protocol II) | Total Null (Hydra vulgaris [2]; with light, Protocol II) | Total Successes (contractile responses) (Hydra vulgaris [2]; with light, Protocol II) | Success Rate (contractile response rate) (Hydra vulgaris [2]; without light (sham)) | Total Null (Hydra vulgaris [2]; without light (sham)) | Total Successes (contractile responses) (Hydra vulgaris [2]; without light (sham)) | ICW delay (response) time (Hydra vulgaris [3]) | Regional ICW upon body column stimulation (Hydra vulgaris [3]) | Rotation rate [4] | other results |
| --- | --- | --- | --- | --- | --- | --- | --- | --- | --- | --- | --- | --- | --- | --- | --- | --- |
| CC1Cc2cc(NCCN(C)C)c3ccccc3c2C1=C1c2ccccc2-c2ccccc21 (centres unmarked) [MM 3] | did not induce any calcium release | much smaller absorbance | did not elicit contraction at a significantly higher rate than light alone | occasionally follow stimuli | Small responses were observed | do not occur in concert with sham stimulus | 38% | 2 | 18 | 12% | 17 | 12 | 15.46 s | not significantly different from solvent-only controls | – | Calcium release at 3 times higher concentration (C2C12 myoblasts; MM 3, 3×): no measurable increase in calcium release |
| CC1Cc2ccc3ccccc3c2C1=C1c2ccccc2Sc2cc(NCCN(C)C)ccc21 (centres unmarked) [MM 1] | robust intracellular calcium release; also recorded: calcium transients several times larger in magnitude than MM 2 | nearly identical absorbances at 400 nm | at a significantly higher rate than light alone | most often occur in concert with stimuli | – | do not occur in concert with sham stimulus | 68% | 14 | 48 | 29% | 28 | 13 | 12.76 s | consistently elicited robust regional ICW | ~ 3 MHz and 3 MHz | Calcium release with scavenger combination (C2C12 myoblasts; MM 1 + light, with thiourea-containing scavenger combination (1× and 0.2×)): without changing the magnitude of calcium release; Responsiveness to MM stimulation during differentiation (C2C12 myoblasts; MM 1, day 1 to day 3): slight decrease of the responsivity from day 1 to day 3; Responsiveness to MM stimulation during differentiation (C2C12 myoblasts; MM 1, day 4 to day 8): lose their responsiveness to MM stimulation; Responsiveness to MM stimulation during differentiation (C2C12 myoblasts; MM 1, day 9): increase in responsiveness to MM stimulation; Calcium release at lower laser power (C2C12 myoblasts; MM 1, lower laser powers): lower calcium release |
| CN(C)CCNc1ccc2c(c1)Sc1ccccc1C2=C1CCc2ccc3ccccc3c21 [MM 4] | – | – | more effective than light alone | most often occur in concert with stimuli | able to drive non-trivial signaling behavior in vivo | do not occur in concert with sham stimulus | 65% | 5 | 36 | 20% | 15 | 6 | 16.6 s | consistently elicited robust regional ICW; also recorded: elicited regional ICW in Hydra despite causing only weak responses in vitro | 3 MHz | – |
